target: purified human, His-tagged PRC2 complex (Homo sapiens, UniProt O75530+Q15910); assay: Hot Spot HMT assay: inhibition of PRC2 enzymatic activity (transfer of tritiated methyl from SAM to core histone, filter binding); format: biochemical; details: not given
Description: The assay uses purified human, His-tagged PRC2 complex, including N-terminal His-tagged EZH2 enzyme, N-terminal Flag-tagged embryonic ectoderm development protein (EED), N-terminal His-tagged suppressor of zeste 12 (SUZ12), N-terminal His-tagged AEBP2, and N-terminal His-tagged RbAp48. In this assay, the transfer of the tritiated methyl group from radiolabeled S-adenosyl methionine (SAM) to purified core histone protein by EZH2 is quantitated after filtration to determine the activity of the core PRC2 complex in the presence and absence of compound.
The initial starting concentration for the serial dilutions of each compound was 1.0 µM. […] SAH (S-(5-adenosyl)-L-homocysteine) was used as a positive control for assay validation.
An aliquot of each serial dilution of test compound was added to deep 384 well plate using Acoustic Technology instrument (Echo 550, LabCyte) containing reaction buffer (50 mM Tris-HCl (pH 8.)), 0.01% Brij35, 1 mM EDTA, 1 mM DTT, 1 mM PMSF and 1% DMSO), 10 nM purified PRC2 complex and 0.05 mg/ml core histone H3 in a 5 µl volume. The reaction was mixed gently and then pre-incubated for 20 min at 30°C. The enzymatic reaction was initiated by adding 1 uM S-Adenosyl-L-[methyl - ^3H]methionine and incubated for 1 hr at 30°C. After 1 hr, the reaction product was detected using a filter binding method and the amount of tritiated H3 core histone was quantitated using a scintillation counter.

purified human, His-tagged PRC2 complex, sequence (Q15910 whole entry): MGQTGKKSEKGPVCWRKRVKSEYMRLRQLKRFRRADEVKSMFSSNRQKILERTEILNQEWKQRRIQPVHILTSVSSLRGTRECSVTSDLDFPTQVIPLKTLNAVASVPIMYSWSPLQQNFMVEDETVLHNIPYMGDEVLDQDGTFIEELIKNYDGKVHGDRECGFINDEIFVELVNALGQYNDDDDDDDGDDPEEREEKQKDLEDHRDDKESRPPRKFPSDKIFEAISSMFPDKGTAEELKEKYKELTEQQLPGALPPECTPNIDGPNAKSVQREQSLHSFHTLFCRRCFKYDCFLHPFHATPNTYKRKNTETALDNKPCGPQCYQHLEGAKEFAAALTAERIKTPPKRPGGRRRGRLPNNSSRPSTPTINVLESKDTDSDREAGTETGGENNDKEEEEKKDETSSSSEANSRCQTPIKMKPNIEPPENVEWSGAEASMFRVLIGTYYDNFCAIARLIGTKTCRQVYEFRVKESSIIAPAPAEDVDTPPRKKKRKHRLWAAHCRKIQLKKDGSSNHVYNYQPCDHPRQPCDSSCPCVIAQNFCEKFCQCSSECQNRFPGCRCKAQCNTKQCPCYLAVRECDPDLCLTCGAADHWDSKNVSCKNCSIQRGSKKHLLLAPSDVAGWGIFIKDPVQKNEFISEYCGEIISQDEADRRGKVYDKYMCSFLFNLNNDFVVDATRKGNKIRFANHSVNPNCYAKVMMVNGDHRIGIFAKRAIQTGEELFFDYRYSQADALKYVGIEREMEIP
purified human, His-tagged PRC2 complex, sequence (O75530 whole entry): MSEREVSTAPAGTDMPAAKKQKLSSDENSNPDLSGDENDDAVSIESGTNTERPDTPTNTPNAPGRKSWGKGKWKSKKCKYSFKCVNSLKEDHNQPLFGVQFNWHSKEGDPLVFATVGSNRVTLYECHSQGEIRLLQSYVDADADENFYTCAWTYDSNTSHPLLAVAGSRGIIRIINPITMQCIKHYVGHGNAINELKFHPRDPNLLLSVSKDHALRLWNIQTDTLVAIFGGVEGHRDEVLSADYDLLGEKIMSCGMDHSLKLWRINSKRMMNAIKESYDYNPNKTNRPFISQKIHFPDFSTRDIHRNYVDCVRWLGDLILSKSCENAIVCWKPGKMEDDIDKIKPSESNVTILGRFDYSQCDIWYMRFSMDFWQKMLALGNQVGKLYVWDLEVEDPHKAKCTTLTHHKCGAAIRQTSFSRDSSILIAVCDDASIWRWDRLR
purified human, His-tagged PRC2 complex, sequence (Q15022 whole entry partner): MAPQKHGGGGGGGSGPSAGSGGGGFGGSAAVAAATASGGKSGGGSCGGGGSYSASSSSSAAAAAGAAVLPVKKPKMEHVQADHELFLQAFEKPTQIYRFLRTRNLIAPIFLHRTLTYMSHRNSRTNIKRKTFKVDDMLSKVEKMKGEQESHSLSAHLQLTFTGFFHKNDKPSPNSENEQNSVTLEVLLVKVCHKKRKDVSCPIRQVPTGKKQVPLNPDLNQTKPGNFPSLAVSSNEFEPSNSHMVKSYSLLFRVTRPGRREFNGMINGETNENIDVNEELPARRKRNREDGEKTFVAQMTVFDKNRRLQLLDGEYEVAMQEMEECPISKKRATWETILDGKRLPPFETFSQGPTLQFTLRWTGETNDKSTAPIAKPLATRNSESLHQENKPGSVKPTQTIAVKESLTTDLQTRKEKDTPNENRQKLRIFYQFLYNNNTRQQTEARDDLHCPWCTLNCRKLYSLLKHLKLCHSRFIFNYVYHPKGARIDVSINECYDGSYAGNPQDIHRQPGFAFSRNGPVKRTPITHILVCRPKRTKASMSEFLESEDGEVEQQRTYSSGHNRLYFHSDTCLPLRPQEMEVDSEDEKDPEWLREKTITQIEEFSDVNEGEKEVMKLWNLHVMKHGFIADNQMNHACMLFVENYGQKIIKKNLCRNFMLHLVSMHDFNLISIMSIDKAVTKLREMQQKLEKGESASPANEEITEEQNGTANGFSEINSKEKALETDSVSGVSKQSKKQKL
purified human, His-tagged PRC2 complex, sequence (Q6ZN18 whole entry partner): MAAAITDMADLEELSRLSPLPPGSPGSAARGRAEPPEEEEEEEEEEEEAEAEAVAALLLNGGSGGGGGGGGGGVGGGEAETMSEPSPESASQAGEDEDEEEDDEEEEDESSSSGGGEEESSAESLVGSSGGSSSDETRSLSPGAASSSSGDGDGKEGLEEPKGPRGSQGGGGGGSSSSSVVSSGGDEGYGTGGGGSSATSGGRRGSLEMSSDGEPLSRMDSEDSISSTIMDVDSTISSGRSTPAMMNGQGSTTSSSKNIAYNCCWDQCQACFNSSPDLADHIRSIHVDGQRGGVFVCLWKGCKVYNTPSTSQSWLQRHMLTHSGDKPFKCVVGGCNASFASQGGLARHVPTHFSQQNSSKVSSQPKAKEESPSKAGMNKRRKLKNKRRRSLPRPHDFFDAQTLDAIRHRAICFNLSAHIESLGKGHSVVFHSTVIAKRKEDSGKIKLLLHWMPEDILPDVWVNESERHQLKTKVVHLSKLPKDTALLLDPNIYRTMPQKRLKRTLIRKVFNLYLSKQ
purified human, His-tagged PRC2 complex, sequence (Q09028 whole entry partner): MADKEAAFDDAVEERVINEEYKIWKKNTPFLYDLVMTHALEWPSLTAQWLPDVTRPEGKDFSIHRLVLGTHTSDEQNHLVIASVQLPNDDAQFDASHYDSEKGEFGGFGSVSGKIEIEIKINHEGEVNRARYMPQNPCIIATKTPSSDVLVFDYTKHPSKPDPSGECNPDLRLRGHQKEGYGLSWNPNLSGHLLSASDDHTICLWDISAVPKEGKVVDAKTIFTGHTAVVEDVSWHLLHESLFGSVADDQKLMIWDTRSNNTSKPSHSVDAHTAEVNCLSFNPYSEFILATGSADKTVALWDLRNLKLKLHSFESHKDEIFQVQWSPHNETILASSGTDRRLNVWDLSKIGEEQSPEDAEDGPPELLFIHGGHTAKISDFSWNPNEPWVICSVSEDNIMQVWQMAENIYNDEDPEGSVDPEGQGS

| Molecule | IC50 |
| --- | --- |
| CN(C)Cc1cc(-c2cnc(NCc3c(F)ccc4c3CCO4)n3cc(C#N)nc23)n(C)n1 [Example 210, 8-(3-((dimethylamino)methyl)-1-methyl-1H-pyrazol-5-yl)-5-(((5-fluoro-2,3-dihydrobenzofuran-4-yl)methyl)amino)imidazo[1,2-c]pyrimidine-2-carbonitrile] | < 100 nM |
| CNCc1cc(-c2cnc(NCc3c(F)ccc4c3CCO4)n3cc(C#N)nc23)n(C)n1 [Example 211, 5-(((5-fluoro-2,3-dihydrobenzofuran-4-yl)methyl)amino)-8-(1-methyl-3-((methylamino)methyl)-1H-pyrazol-5-yl)imidazo[1,2-c]pyrimidine-2-carbonitrile] | < 100 nM |

same assay, conditions: Inhibition of PRC2-mediated enzymatic activity; 10 nM PRC2 complex, 0.05 mg/ml core histone H3, 1 uM 3H-SAM, 1 hr at 30°C

| Molecule | IC50 |
| --- | --- |
| Cc1nc(OC(C)C)ncc1-c1cnc(NCc2c(F)ccc3c2CCO3)n2cc(C#N)nc12 [Example 89, 5-(((5-fluoro-2,3-dihydrobenzofuran-4-yl)methyl)amino)-8-(2-isopropoxy-4-methylpyrimidin-5-yl)imidazo[1,2-c]pyrimidine-2-carbonitrile] | < 100 nM |
| CN(C)C(=O)c1ccc(-c2cnc(NCc3c(F)ccc4c3CCO4)n3cc(C#N)nc23)c(F)c1F [Example 42, 4-(2-cyano-5-(((5-fluoro-2,3-dihydrobenzofuran-4-yl)methyl)amino)imidazo[1,2-c]pyrimidin-8-yl)-2,3-difluoro-N,N-dimethylbenzamide] | < 100 nM |
| N#Cc1cn2c(NCc3c(F)ccc4c3CCO4)ncc(-c3ccc(CN4CCC(F)(F)C4)cc3)c2n1 [Example 55, 8-(4-((3,3-difluoropyrrolidin-1-yl)methyl)phenyl)-5-(((5-fluoro-2,3-dihydrobenzofuran-4-yl)methyl)amino)imidazo[1,2-c]pyrimidine-2-carbonitrile] | < 100 nM |
| 8-(1,3-dimethyl-1H-pyrazol-5-yl)-5-(((6-fluorochroman-5-yl)methyl)amino)imidazo[1,2-c]pyrimidine-2-carbonitrile [Example 122] | > 500 nM |
| COc1cncc(-c2cnc(NCc3c(F)ccc4c3CCO4)n3cc(C#N)nc23)c1 [Example 93, 5-(((5-fluoro-2,3-dihydrobenzofuran-4-yl)methyl)amino)-8-(5-methoxypyridin-3-yl)imidazo[1,2-c]pyrimidine-2-carbonitrile] | 100 to 500 nM |
| CN(C)CCn1cc(-c2cnc(NCc3c(F)ccc4c3CCO4)n3cc(C#N)nc23)cn1 [Example 102, 8-(1-(2-(dimethylamino)ethyl)-1H-pyrazol-4-yl)-5-(((5-fluoro-2,3-dihydrobenzofuran-4-yl)methyl)amino)imidazo[1,2-c]pyrimidine-2-carbonitrile] | 100 to 500 nM |
| Cc1cc(-c2cnc(NCc3cccc4c3OCO4)n3cc(C#N)nc23)n(C)n1 [Example 27, 5-((benzo[d][1,3]dioxol-4-ylmethyl)amino)-8-(1,3-dimethyl-1H-pyrazol-5-yl)imidazo[1,2-c]pyrimidine-2-carbonitrile] | > 500 nM |
| N#Cc1cn2c(NCc3c(F)ccc4c3CCO4)ncc(-c3ccnn3CCO)c2n1 [Example 231, 5-(((5-fluoro-2,3-dihydrobenzofuran-4-yl)methyl)amino)-8-(1-(2-hydroxyethyl)-1H-pyrazol-5-yl)imidazo[1,2-c]pyrimidine-2-carbonitrile] | 100 to 500 nM |
| CN(C)Cc1ccc(-c2cnc(NCc3c(F)ccc4c3CCO4)n3cc(C#N)nc23)c(Cl)c1F [Example 83, 8-(2-chloro-4-((dimethylamino)methyl)-3-fluorophenyl)-5-(((5-fluoro-2,3-dihydrobenzofuran-4-yl)methyl)amino)imidazo[1,2-c]pyrimidine-2-carbonitrile] | < 100 nM |
| Cc1cc(-c2cnc(NCc3c(F)ccc4c3C(O)CO4)n3cc(C#N)nc23)n(C)n1 (centres unmarked) [Example 155, 8-(1,3-dimethyl-1H-pyrazol-5-yl)-5-(((5-fluoro-3-hydroxy-2,3-dihydrobenzofuran-4-yl)methyl)amino)imidazo[1,2-c]pyrimidine-2-carbonitrile] | < 100 nM |
| N#Cc1cn2c(NCc3c(F)ccc4c3CCO4)ncc(C3CCOCC3)c2n1 [Example 141, 5-(((5-fluoro-2,3-dihydrobenzofuran-4-yl)methyl)amino)-8-(tetrahydro-2H-pyran-4-yl)imidazo[1,2-c]pyrimidine-2-carbonitrile] | > 500 nM |
| Cc1c(-c2cnc(NCc3c(F)ccc4c3CCO4)n3cc(C#N)nc23)cnn1C(C)C [Example 26, 5-(((5-fluoro-2,3-dihydrobenzofuran-4-yl)methyl)amino)-8-(1-isopropyl-5-methyl-1H-pyrazol-4-yl)imidazo[1,2-c]pyrimidine-2-carbonitrile] | 100 to 500 nM |
| CC(C)n1cc(-c2cnc(NCc3c(F)ccc4c3CCO4)n3cc(C#N)nc23)cn1 [Example 99, 5-(((5-fluoro-2,3-dihydrobenzofuran-4-yl)methyl)amino)-8-(1-isopropyl-1H-pyrazol-4-yl)imidazo[1,2-c]pyrimidine-2-carbonitrile] | < 100 nM |
| CN(C)CCCn1cc(-c2cnc(NCc3c(F)ccc4c3CCO4)n3cc(C#N)nc23)cn1 [Example 103, 8-(1-(3-(dimethylamino)propyl)-1H-pyrazol-4-yl)-5-(((5-fluoro-2,3-dihydrobenzofuran-4-yl)methyl)amino)imidazo[1,2-c]pyrimidine-2-carbonitrile] | 100 to 500 nM |
| Cc1n[nH]cc1-c1cnc(NCc2c(F)ccc3c2CCO3)n2cc(C#N)nc12 [Example 79, 5-(((5-fluoro-2,3-dihydrobenzofuran-4-yl)methyl)amino)-8-(3-methyl-1H-pyrazol-4-yl)imidazo[1,2-c]pyrimidine-2-carbonitrile] | < 100 nM |
| COc1cc(C)c(-c2cnc(NCc3c(F)ccc4c3CCO4)n3cc(C(N)=O)nc23)cn1 [Example 14, 5-(((5-fluoro-2,3-dihydrobenzofuran-4-yl)methyl)amino)-8-(6-methoxy-4-methylpyridin-3-yl)imidazo[1,2-c]pyrimidine-2-carboxamide] | 100 to 500 nM |
| CN(C)C(=O)c1cc(Cl)c(-c2cnc(NCc3c(F)ccc4c3CCO4)n3cc(C#N)nc23)cc1F [Example 35, 5-chloro-4-(2-cyano-5-(((5-fluoro-2,3-dlhydrobenzofuran-4-yl)methyl)amino)imidazo[1,2-c]pyrimidin-8-yl)-2-fluoro-N,N-dimethylbenzamide] | < 100 nM |
| N#Cc1cn2c(NCc3c(F)ccc4c3CCO4)ncc(-c3cnccc3Cl)c2n1 [Example 109, 8-(4-chloropyridin-3-yl)-5-(((5-fluoro-2,3-dihydrobenzofuran-4-yl)methyl)amino)imidazo[1,2-c]pyrimidine-2-carbonitrile] | < 100 nM |
| COc1ccc(-c2cnc(NCc3c(F)ccc4c3CCO4)n3cc(C#N)nc23)cn1 [Example 94, 5-(((5-fluoro-2,3-dihydrobenzofuran-4-yl)methyl)amino)-8-(6-methoxypyridin-3-yl)imidazo[1,2-c]pyrimidine-2-carbonitrile] | < 100 nM |
| N#Cc1cn2c(NCc3c(F)ccc4c3CCO4)ncc(-c3ccc(N4CCCCC4)nc3)c2n1 [Example 135, 5-(((5-fluoro-2,3-dihydrobenzofuran-4-yl)methyl)amino)-8-(6-(piperidin-1-yl)pyridin-3-yl)imidazo[1,2-c]pyrimidine-2-carbonitrile] | < 100 nM |

test system: Karpas 422 cells; assay: Karpas 422 cell viability, CTG (Cell Titre Glo) assay; format: cell-based, human; details: Homo sapiens; Inhibition of proliferation of Karpas 422 cells (EZH2 Y641N); viability measured Day 4, Day 7 or Day 11, time point of the tabulated values not stated
Protocol: Karpas 422 cell line is a human B cell non-Hodgkin's lymphoma cell line established from a patient having DLBCL. This EZH2 heterozygotic cell line expresses a mutant form of EZH2 enzyme (Y641N) that increases histone H3 methylation and this mutation has been implicated in the tumorgenesis of lymphomas, such as DLBCL.
Karpas 422 cells (PHE cat no., 06101702) were cultured in RPMI medium supplemented with 20% fetal bovine serum and 1% penicillin/1% streptomycin and plated at a density of 1000 cells/90 µl/well in 96 well white assay plates. A dose response curve for compounds of the present invention was determined by adding a 10µl aliquot of stock solutions of varying concentrations of compounds to the same medium in each well, over a concentration range of 10µM using 3-fold dilutions to a final concentration of 1.5nM. The plates were incubated at 37° C for predetermined time periods, Day 4, Day 7, or Day 11, and the viability of the cells was measured using a CTG assay kit (Cell Titre Glo; Promega cat.no G7573) on Day 4 and Day 7 in accordance with the manufacturer's instructions.
For the viability assay for the Day 11 plates, the plates were subjected to centrifugation at 1100 rpm for five minutes on Day 7 and the supernatant was removed by aspiration. The cells were resuspended in 90 µl aliquot of the appropriate growth medium lacking the compound followed by addition of 10 µl of a 10X stock of the same compound at the same concentration. The viability of the Day 11 cells was measured using the CTG assay kit described above in accordance with the manufacturer's instructions. The IC50 values for each compound at each predetermined time point were calculated using Graph pad PRISM software and the results are shown in Table 15. A = ≤250 nM; B = […] - ≤500 nM; and C = >500 nM.

| Molecule | IC50 |
| --- | --- |
| Cc1nc(OC(C)C)ncc1-c1cnc(NCc2c(F)ccc3c2CCO3)n2cc(C#N)nc12 [Example 89, 5-(((5-fluoro-2,3-dihydrobenzofuran-4-yl)methyl)amino)-8-(2-isopropoxy-4-methylpyrimidin-5-yl)imidazo[1,2-c]pyrimidine-2-carbonitrile] | ≤ 250 nM |
| CN(C)C(=O)c1ccc(-c2cnc(NCc3c(F)ccc4c3CCO4)n3cc(C#N)nc23)c(F)c1F [Example 42, 4-(2-cyano-5-(((5-fluoro-2,3-dihydrobenzofuran-4-yl)methyl)amino)imidazo[1,2-c]pyrimidin-8-yl)-2,3-difluoro-N,N-dimethylbenzamide] | ≤ 250 nM |
| Cc1cc(S(C)(=O)=O)ccc1-c1cnc(NCc2c(F)ccc3c2CCO3)n2cc(C#N)nc12 [Example 87, 5-(((5-fluoro-2,3-dihydrobenzofuran-4-yl)methyl)amino)-8-(2-methyl-4-(methylsulfonyl)phenyl)imidazo[1,2-c]pyrimidine-2-carbonitrile] | ≤ 250 nM |
| Cc1cn(-c2cnc(NCc3c(F)ccc4c3CCO4)n3cc(C#N)nc23)cn1 [Example 139, 5-(((5-fluoro-2,3-dihydrobenzofuran-4-yl)methyl)amino)-8-(4-methyl-1H-imidazol-1-yl)imidazo[1,2-c]pyrimidine-2-carbonitrile] | ≤ 250 nM |

— patent publication EP4043466B1, “PRC2 INHIBITORS” (Mirati Therapeutics, Inc., priority 2018, dated 2019)
